Reference: DBAASP
Converted amounts (≈) assume the structure as drawn.

What was measured:
Test in all cases: ≥ marks a high value that may be exact or a test limit, other limits are often not marked, values filed in µg/mL are converted to µM
[1] = system: Cronobacter muytjensii ATCC 51329
[2] = system: Cronobacter sakazakii ATCC BAA-894
[3] = system: Cronobacter sakazakii DPC 6440
[4] = system: Cronobacter sakazakii DSM 4485
[5] = system: Escherichia coli NCIMB 11843
[6] = system: Klebsiella pneumoniae NCIMB 13218
[7] = system: Pseudomonas fluorescens NCIMB 9046
[8] = system: Salmonella enterica subsp. enterica serovar Typhimurium LT2
[9] = system: Staphylococcus aureus NCTC 8325-4
[10] = system: Staphylococcus aureus Newman
[11] = system: Staphylococcus aureus RF122
[12] = system: Staphylococcus aureus RN4220
[13] = system: Staphylococcus aureus SA113
Escherichia coli JW0013 = system: Escherichia coli JW0013
[14] = system: Bacillus subtilis ATCC 6051
[15] = system: Pseudomonas aeruginosa ATCC 27853
[16] = system: Candida albicans NCPF 1467
[17] = system: Escherichia coli NCTC 10418
[18] = system: Staphylococcus aureus NCTC 10788

Compound: CC(C)C[C@H](NC(=O)CNC(=O)[C@H](CCC(N)=O)NC(=O)[C@H](Cc1cnc[nH]1)NC(=O)[C@@H](N)CCCCN)C(=O)N1CCC[C@H]1C(=O)N[C@@H](CCC(N)=O)C(=O)N[C@@H](CCC(=O)O)C(=O)O [KHQGLPQE]
- MIC [1]: ≥ 2500 µM
- MIC [2]: ≥ 2500 µM
- MIC [3]: ≥ 1250 µM
- MIC [4]: ≥ 2500 µM
- MIC [5]: ≥ 1250 µM
- MIC [6]: ≥ 1250 µM
- MIC [7]: ≥ 1250 µM
- MIC [8]: ≥ 1250 µM
- MIC [9]: ≥ 1250 µM
- MIC [10]: ≥ 1250 µM
- MIC [11]: ≥ 1250 µM
- MIC [12]: ≥ 1250 µM
- MIC [13]: ≥ 625 µM

Compound: CC[C@H](C)[C@H](N)C(=O)N[C@@H](Cc1cnc[nH]1)C(=O)N[C@@H](Cc1cnc[nH]1)C(=O)N[C@@H](CCC(N)=O)C(=O)NCC(=O)N[C@@H](CC(C)C)C(=O)N1CCC[C@H]1C(=O)N[C@@H](CCC(N)=O)C(=O)N[C@@H](CCC(=O)O)C(=O)O [IHHQGLPQE]
- MIC [1]: ≥ 2500 µM
- MIC [2]: ≥ 1250 µM
- MIC [3]: ≥ 1250 µM
- MIC [4]: ≥ 2500 µM
- MIC [5]: ≥ 2500 µM
- MIC [6]: ≥ 2500 µM
- MIC [7]: ≥ 2500 µM
- MIC [8]: ≥ 2500 µM
- MIC [9]: ≥ 2500 µM
- MIC [10]: ≥ 2500 µM
- MIC [11]: ≥ 2500 µM
- MIC [12]: ≥ 2500 µM
- MIC [13]: ≥ 2500 µM

Compound: CC[C@H](C)[C@H](NC(=O)[C@H](CCCN=C(N)N)NC(=O)[C@@H](N)CCCN=C(N)N)C(=O)N[C@@H](CCCN=C(N)N)C(=O)N1CCC[C@H]1C(=O)N[C@@H](CCCN=C(N)N)C(=O)N1CCC[C@H]1C(=O)N1CCC[C@H]1C(=O)N[C@@H](CCCN=C(N)N)C(=O)N[C@@H](CC(C)C)C(=O)N1CCC[C@H]1C(=O)N[C@@H](CCCN=C(N)N)C(=O)N1CCC[C@H]1C(=O)N[C@@H](CCCN=C(N)N)C(=O)N1CCC[C@H]1C(=O)N[C@@H](CCCCN)C(=O)O [RRIRPRPPRLPRPRPK]
- MIC (Escherichia coli JW0013): 0.24 µM (≈ 0.492 µg/mL)

Compound: CC[C@H](C)[C@H](N)C(=O)N[C@@H](CCCN=C(N)N)C(=O)N[C@@H](CCCN=C(N)N)C(=O)N[C@@H](CCC(N)=O)C(=O)NCC(=O)N[C@@H](CC(C)C)C(=O)N1CCC[C@H]1C(=O)N[C@@H](CCC(=O)O)C(=O)O [IRRQGLPE]
- MIC [1]: ≥ 1250 µM
- MIC [2]: ≥ 1250 µM
- MIC [3]: ≥ 1250 µM
- MIC [4]: ≥ 1250 µM
- MIC [5]: ≥ 2500 µM
- MIC [6]: ≥ 2500 µM
- MIC [7]: ≥ 1250 µM
- MIC [8]: ≥ 2500 µM
- MIC [9]: ≥ 312 µM
- MIC [10]: ≥ 1250 µM
- MIC [11]: ≥ 1250 µM
- MIC [12]: ≥ 1250 µM
- MIC [13]: ≥ 625 µM

Compound: CC[C@H](C)[C@H](NC(=O)[C@H](CCCN=C(N)N)NC(=O)[C@H](CCCN=C(N)N)NC(=O)[C@@H]1CCCN1C(=O)[C@@H]1CCCN1C(=O)[C@H](CCCN=C(N)N)NC(=O)[C@@H]1CCCN1C(=O)[C@H](CCCN=C(N)N)NC(=O)[C@@H]1CCCN1C(=O)[C@H](CC(C)C)NC(=O)[C@H](Cc1ccc(O)cc1)NC(=O)[C@@H]1CCCN1C(=O)[C@H](CC(N)=O)NC(=O)[C@H](CCCCN)NC(=O)[C@H](CC(=O)O)NC(=O)[C@@H](N)C(C)C)C(=O)N[C@@H](Cc1ccc(O)cc1)C(=O)N[C@@H](CC(N)=O)C(=O)N[C@@H](CCCN=C(N)N)C(N)=O [VDKNPYLPRPRPPRRIYNR]
- MIC (Escherichia coli JW0013): 1.99 µM (≈ 4.8 µg/mL)

Compound: CC[C@H](C)[C@H](NC(=O)[C@@H](N)Cc1cnc[nH]1)C(=O)N[C@@H](CCC(N)=O)C(=O)N[C@@H](CCCCN)C(=O)N[C@@H](CCC(=O)O)C(=O)N[C@@H](CC(=O)O)C(=O)N[C@H](C(=O)N1CCC[C@H]1C(=O)N[C@@H](CO)C(=O)N[C@@H](CCC(=O)O)C(=O)N[C@@H](CCCN=C(N)N)C(=O)N[C@@H](Cc1ccc(O)cc1)C(=O)N[C@@H](CC(C)C)C(=O)NCC(=O)N[C@@H](Cc1ccc(O)cc1)C(=O)N[C@@H](CC(C)C)C(=O)N[C@@H](CCC(=O)O)C(=O)N[C@@H](CCC(N)=O)C(=O)N[C@@H](CC(C)C)C(=O)N[C@@H](CC(C)C)C(=O)N[C@@H](CCCN=C(N)N)C(=O)N[C@@H](CC(C)C)C(=O)N[C@@H](CCCCN)C(=O)N[C@@H](CCCCN)C(=O)O)C(C)C [HIQKEDVPSERYLGYLEQLLRLKK]
- MIC [14]: ≥ 186 µM

Compound: CC[C@H](C)[C@H](NC(=O)[C@H](CCCN=C(N)N)NC(=O)[C@H](CCCN=C(N)N)NC(=O)[C@@H]1CCCN1C(=O)[C@@H]1CCCN1C(=O)[C@H](CCCN=C(N)N)NC(=O)[C@@H]1CCCN1C(=O)[C@H](CCCN=C(N)N)NC(=O)[C@@H]1CCCN1C(=O)[C@H](CC(C)C)NC(=O)[C@H](Cc1ccc(O)cc1)NC(=O)[C@H](CS)NC(=O)[C@@H]1CCCN1C(=O)[C@H](CCCCN)NC(=O)[C@H](CC(=O)O)NC(=O)[C@@H](N)C(C)C)C(=O)N[C@@H](Cc1ccc(O)cc1)C(=O)N[C@@H](CC(N)=O)C(=O)N[C@@H](CCCN=C(N)N)C(N)=O [VDKPCYLPRPRPPRRIYNR]
- MIC (Escherichia coli JW0013): 2 µM (≈ 4.8 µg/mL)

Compound: CC[C@H](C)[C@H](NC(=O)[C@H](CCCN=C(N)N)NC(=O)[C@H](CCCN=C(N)N)NC(=O)[C@@H]1CCCN1C(=O)[C@@H]1CCCN1C(=O)[C@H](CCCN=C(N)N)NC(=O)[C@@H]1CCCN1C(=O)[C@H](CCCN=C(N)N)NC(=O)[C@@H]1CCCN1C(=O)[C@H](CCCN=C(N)N)NC(=O)[C@H](CCCN=C(N)N)NC(=O)[C@@H]1CCCN1C(=O)[C@H](CCCN=C(N)N)NC(=O)[C@H](CCCCN)NC(=O)[C@H](CC(=O)O)NC(=O)[C@@H](N)C(C)C)C(=O)N[C@@H](Cc1ccc(O)cc1)C(=O)N[C@@H](CC(N)=O)C(=O)N[C@@H](CCCN=C(N)N)C(N)=O [VDKRPRRPRPRPPRRIYNR]
- MIC (Escherichia coli JW0013): 0.965 µM (≈ 2.4 µg/mL)

Compound: CC(C)C[C@H](NC(=O)[C@H](CC(N)=O)NC(=O)[C@H](CCC(=O)O)NC(=O)[C@H](CC(N)=O)NC(=O)[C@H](CC(C)C)NC(=O)[C@@H](N)C(C)C)C(=O)N[C@@H](CCCN=C(N)N)C(=O)N[C@@H](CCCN=C(N)N)C(=O)O [VLNENLRR]
- MIC [1]: ≥ 625 µM
- MIC [2]: ≥ 1250 µM
- MIC [3]: ≥ 1250 µM
- MIC [4]: ≥ 1250 µM
- MIC [5]: ≥ 2500 µM
- MIC [6]: ≥ 1250 µM
- MIC [15]: 32 µM (≈ 32.4 µg/mL)
- MIC [7]: ≥ 1250 µM
- MIC [8]: ≥ 2500 µM
- MIC [9]: ≥ 625 µM
- MIC [10]: ≥ 1250 µM
- MIC [11]: ≥ 1250 µM
- MIC [12]: ≥ 1250 µM
- MIC [13]: ≥ 1250 µM

Compound: CC[C@H](C)[C@H](NC(=O)[C@H](CC(C)C)NC(=O)[C@H](CCCCN)NC(=O)[C@H](CCCCN)NC(=O)[C@@H](NC(=O)[C@H](CC(C)C)NC(=O)[C@H](CCCCN)NC(=O)[C@@H]1CCCN1C(=O)[C@@H](NC(=O)[C@H](CCSC)NC(=O)CNC(=O)[C@H](CC(C)C)NC(=O)[C@@H](N)Cc1ccccc1)[C@@H](C)CC)[C@@H](C)CC)C(=O)N[C@@H](CCCCN)C(=O)N[C@@H](C)C(=O)N[C@@H](Cc1ccccc1)C(=O)N[C@@H](CCCCN)C(=O)O [FLGMIPKLIKKLIKAFK]
- MIC [16]: 2.5 µM (≈ 4.97 µg/mL)
- MIC [17]: 5 µM (≈ 9.94 µg/mL)
- MIC [18]: 5 µM (≈ 9.94 µg/mL)

Compound: CC(C)C[C@H](NC(=O)[C@H](CC(C)C)NC(=O)[C@H](CC(N)=O)NC(=O)[C@H](CCC(=O)O)NC(=O)[C@H](CC(N)=O)NC(=O)[C@H](CC(C)C)NC(=O)[C@@H](N)C(C)C)C(=O)O [VLNENLL]
- MIC [1]: ≥ 2500 µM
- MIC [2]: ≥ 2500 µM
- MIC [3]: ≥ 312 µM
- MIC [4]: ≥ 2500 µM
- MIC [5]: ≥ 1250 µM
- MIC [6]: ≥ 1250 µM
- MIC [7]: ≥ 1250 µM
- MIC [8]: ≥ 1250 µM
- MIC [9]: ≥ 1250 µM
- MIC [10]: ≥ 1250 µM
- MIC [11]: ≥ 1250 µM
- MIC [12]: ≥ 1250 µM
- MIC [13]: ≥ 1250 µM

Compound: CC(C)C[C@H](NC(=O)[C@H](C)NC(=O)[C@H](CC(N)=O)NC(=O)[C@H](CCC(=O)O)NC(=O)[C@H](CC(N)=O)NC(=O)[C@H](CC(C)C)NC(=O)[C@@H](N)C(C)C)C(=O)N[C@@H](CCCN=C(N)N)C(=O)O [VLNENALR]
- MIC [1]: ≥ 2500 µM
- MIC [2]: ≥ 2500 µM
- MIC [3]: ≥ 625 µM
- MIC [4]: ≥ 2500 µM
- MIC [5]: ≥ 1250 µM
- MIC [6]: ≥ 1250 µM
- MIC [7]: ≥ 1250 µM
- MIC [8]: ≥ 2500 µM
- MIC [9]: ≥ 1250 µM
- MIC [10]: ≥ 625 µM
- MIC [11]: ≥ 1250 µM
- MIC [12]: ≥ 1250 µM
- MIC [13]: ≥ 625 µM

Compound: CC[C@H](C)[C@H](NC(=O)[C@H](C)NC(=O)[C@H](C)NC(=O)[C@@H]1CCCN1C(=O)[C@@H](NC(=O)[C@H](CC(C)C)NC(=O)[C@H](CO)NC(=O)[C@H](CC(C)C)NC(=O)[C@@H](N)Cc1ccccc1)[C@@H](C)CC)C(=O)N[C@@H](CO)C(=O)N[C@@H](C)C(=O)N[C@H](C(=O)N[C@@H](CO)C(=O)N[C@@H](C)C(=O)N[C@@H](CC(C)C)C(=O)N[C@@H](C)C(=O)N[C@@H](CC(N)=O)C(=O)N[C@@H](Cc1cnc[nH]1)C(N)=O)C(C)C [FLSLIPAAISAVSALANH]
- MIC [16]: ≥ 132 µM
- MIC [17]: ≥ 264 µM
- MIC [18]: ≥ 33 µM
